Source: patent US11000033B2, “Ketone or oxime compound, and herbicide” (NISSAN CHEMICAL CORPORATION, priority 2014, dated 2021)

Key:
Assay type in all cases: in vivo
[1] = test system: wheat; experiment: Test Example 4: effect on crop by soil treatment (symbol e); settings: application herbicide amount 320 g/ha
Procedure, shortened: (§1)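 Plants grew in a 25° C. to 30° C. greenhouse after spot-sowing of seeds, including beet, rapeseed, wheat and rice, into sterilized diluvial soil under roughly 1.5 cm of cover soil.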

[2] = test system: rice; experiment: Test Example 4: effect on crop by soil treatment (symbol b); settings: application herbicide amount 320 g/ha
Procedure, shortened: as §1

[3] = test system: Echinochloa oryzacola Vasing.; experiment: Test Example 2: herbicidal activity, application during weed generation in submerged conditions (symbol A); settings: Table 23; application herbicide amount 320 g/ha; grade 0-5 by criteria of Test Example 1
Procedure, shortened: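 Read-out: herbicidal effect on each species rated on a visual scale 3 weeks after treatment. Plants were raised together from seed in flooded alluvial soil (4 cm water) at 25° C. to 30° C. and treated at one to two leaves by water-surface application of diluted emulsion.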

[4] = test system: Avena fatua; experiment: Test Example 4: herbicidal effect by soil treatment (symbol I); settings: application herbicide amount 320 g/ha
Procedure, shortened: (§2)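 Seeds were sown in sterilized diluvial soil, covered with about 1.5 cm of soil, and the soil surface was sprayed with a water-diluted emulsion of the compound at a predetermined rate. Plants grew in a greenhouse at 25° C. to 30° C.; effects were scored visually 3 weeks after application.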

[5] = test system: rapeseed; experiment: Test Example 4: effect on crop by soil treatment (symbol g); settings: application herbicide amount 320 g/ha
Procedure, shortened: as §1

[6] = test system: Cyperus difformis; experiment: Test Example 3: herbicidal effect by foliage application, Wagner pot (symbol E); settings: application herbicide amount 320 g/ha
Procedure, shortened: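 Scoring took place 3 weeks after application, using fixed criteria. Plants had been raised from seed for 14 days at 25 to 30 °C in submerged alluvial soil before a diluted emulsion of the test compound was sprayed uniformly on the leaves.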

[7] = test system: corn; experiment: Test Example 5: effect on crop by foliage application, plastic box (symbol c); settings: 320 g/ha, 3 weeks after application
Procedure, shortened: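 Greenhouse culture at 25° C. to 30° C. followed spot-like sowing into sterilized diluvial soil, with seed covered by roughly 1.5 cm of soil.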

[8] = test system: soybean; experiment: Test Example 4: effect on crop by soil treatment (symbol d); settings: application herbicide amount 320 g/ha
Procedure, shortened: as §1

[9] = test system: Digitaria ciliaris; experiment: Test Example 4: herbicidal effect by soil treatment (symbol F); settings: application herbicide amount 320 g/ha
Procedure, shortened: as §2

[10] = test system: Stellaria media; experiment: Test Example 5: herbicidal effect by foliage application, plastic box (symbol P); settings: 320 g/ha, 3 weeks after application
Procedure, shortened: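 Emulsion formulation, diluted with water to the intended rate, was applied uniformly to leaves by small sprayer. Recipients were 14-day greenhouse-grown seedlings (25° C. to 30° C.). Assessment followed at 3 weeks.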

| Compound | e (wheat) effect on crop grade [1] | b (directly sowed rice plant) effect on crop grade [2] | Herbicidal effect grade, A: Echinochloa oryzacola Vasing. [3] | I (Avena fatua) herbicidal effect grade [4] | g (rapeseed) effect on crop grade [5] | herbicidal effect on E, grade 0-5 [6] | c: corn, effect on crop grade [7] | d (soybean) effect on crop grade [8] | F (Digitaria ciliaris) herbicidal effect grade [9] | Effect on crop grade, e: wheat [1] | Effect on crop grade, b: directly sowed rice plant [2] | P: Stellaria media, herbicidal effect (criteria of Test Example 1) [10] | Herbicidal effect grade, I: Avena fatua [4] | Effect on crop grade, g: rapeseed [5] | c: corn, effect on crop (criteria of Test Example 1) [7] | Effect on crop grade, d: soybean [8] | Herbicidal effect grade, F: Digitaria ciliaris [9] |
| --- | --- | --- | --- | --- | --- | --- | --- | --- | --- | --- | --- | --- | --- | --- | --- | --- | --- |
| CON=C(C)CC1CC(OC(=O)CCC2CCCCC2)=C(c2c(C)cc(C)cc2C)C1=O (stereo not drawn) [1-035] | 4 (Herbicidal ratio of 70% or higher and lower than 90%) | 5 (Herbicidal ratio of 90% or more (almost completely withered)) | 5 (Herbicidal ratio of 90% or more (almost completely withered)) | 4 (Herbicidal ratio of 70% or higher and lower than 90%) | 5 (Herbicidal ratio of 90% or more (almost completely withered)) | 5 (Herbicidal ratio of 90% or more (almost completely withered)) | 4 (Herbicidal ratio of 70% or higher and lower than 90%) | 0 (Herbicidal ratio of 5% or lower (almost no effect)) | 5 (Herbicidal ratio of 90% or more (almost completely withered)) | – | – | – | – | – | – | – | – |
| CC(=O)CC1CC(O)=C(c2c(C)cc(Oc3ccccc3)cc2C)C1=O (stereo not drawn) [7-014] | – | – | – | – | – | 2 (Herbicidal ratio of 20% or higher and lower than 40%) | – | – | – | 0 (Herbicidal ratio of 5% or lower (almost no effect)) | 4 (Herbicidal ratio of 70% or higher and lower than 90%) | 0 (Herbicidal ratio of 5% or lower (almost no effect)) | 0 (Herbicidal ratio of 5% or lower (almost no effect)) | 0 (Herbicidal ratio of 5% or lower (almost no effect)) | 3 (Herbicidal ratio of 40% or higher and lower than 70%) | 0 (Herbicidal ratio of 5% or lower (almost no effect)) | 3 (Herbicidal ratio of 40% or higher and lower than 70%) |
| CC(=O)CC1CC(O)=C(c2c(C)cc(-c3ccc(OC(F)(F)F)cc3)cc2C)C1=O (stereo not drawn) [7-016] | – | – | – | – | – | 0 (Herbicidal ratio of 5% or lower (almost no effect)) | – | – | – | 0 (Herbicidal ratio of 5% or lower (almost no effect)) | 0 (Herbicidal ratio of 5% or lower (almost no effect)) | 0 (Herbicidal ratio of 5% or lower (almost no effect)) | 0 (Herbicidal ratio of 5% or lower (almost no effect)) | 0 (Herbicidal ratio of 5% or lower (almost no effect)) | 0 (Herbicidal ratio of 5% or lower (almost no effect)) | 0 (Herbicidal ratio of 5% or lower (almost no effect)) | 3 (Herbicidal ratio of 40% or higher and lower than 70%) |
| CC(=O)CC1CC(O)=C(c2c(C)cc(-c3ncccn3)cc2C)C1=O (stereo not drawn) [7-017] | – | – | – | – | – | 4 (Herbicidal ratio of 70% or higher and lower than 90%) | – | – | – | 0 (Herbicidal ratio of 5% or lower (almost no effect)) | 0 (Herbicidal ratio of 5% or lower (almost no effect)) | 0 (Herbicidal ratio of 5% or lower (almost no effect)) | 0 (Herbicidal ratio of 5% or lower (almost no effect)) | 0 (Herbicidal ratio of 5% or lower (almost no effect)) | 0 (Herbicidal ratio of 5% or lower (almost no effect)) | 0 (Herbicidal ratio of 5% or lower (almost no effect)) | 4 (Herbicidal ratio of 70% or higher and lower than 90%) |
